Here are results for 1 compound from PMC8319832, “Fine-Tuning of Alkaline Residues on the Hydrophilic Face Provides a Non-toxic Cationic α-Helical Antimicrobial Peptide Against Antibiotic-Resistant ESKAPE Pathogens” (Frontiers in Microbiology, 2021).

Usually MIC stands for the least concentration at which growth counts as inhibited.

≈ marks a conversion by molar mass, not a printed value. Where a SMILES comes first, the peptide text is derived from it.

In data set [1] the test system is A. baumannii ATCC 19606. The data set is described as follows: MIC, broth dilution. It counts as cell-based, Acinetobacter baumannii. As for the experimental part: (§1) All experiments were repeated at least three times.
To study the influence of physiological ions on the antimicrobial activities of the peptides, The MICs of the peptides were also determined against the standard bacterial strains cultured in MHB containing various salts at their physiological concentrations (150 mM NaCl, 4.5 mM KCl, 1 mM MgCl2, 2 mM CaCl2, 6 μM NH4HCO3, and 4 μM FeCl3) ([Ma et al., 2016]).

For data set [2], the system named is K. pneumoniae 9126. The data set can be described thus: MIC, broth dilution. Type of data set: cell-based, Klebsiella pneumoniae. Conditions: CLSI broth dilution, MHB, 37°C, 20 h, OD630, at least three repeats; clinical isolate, CRE.
Text: as §1
A general note: In broth dilution the organism is exposed to a series of concentrations in liquid medium.

Data set [3] concerns S. aureus ATCC 25923. The data set can be described thus: MIC, broth dilution. Type of data set: cell-based, Staphylococcus aureus. Conditions: CLSI broth dilution, MHB, 37°C, 20 h, OD630, at least three repeats; standard strain.
Text: as §1

The test system of data set [4] is S. aureus 1176. The data set is described as follows: MIC, broth dilution. It counts as cell-based, Staphylococcus aureus. Conditions: CLSI broth dilution, MHB, 37°C, 20 h, OD630, at least three repeats; clinical isolate.
Text: as §1

The test system of data set [5] is S. aureus 9124. The data set can be described thus: MIC, broth dilution. Type of data set: cell-based, Staphylococcus aureus. Conditions: CLSI broth dilution, MHB, 37°C, 20 h, OD630, at least three repeats; clinical isolate, MRSA.
Text: as §1

In data set [6] the test system is S. aureus 4188. The data set is described as follows: MIC, broth dilution. It counts as cell-based, Staphylococcus aureus. Conditions: CLSI broth dilution, MHB, 37°C, 20 h, OD630, at least three repeats; clinical isolate, penicillin-resistant.
Text: as §1

Data set [7] has as its system P. aeruginosa 9014. The data set can be described thus: MIC, broth dilution. It counts as cell-based, Pseudomonas aeruginosa. Conditions: CLSI broth dilution, MHB, 37°C, 20 h, OD630, at least three repeats; clinical isolate, CRE, MDR.
Text: as §1

Data set [8] concerns P. aeruginosa 9042. The data set can be described thus: MIC, broth dilution. It counts as cell-based, Pseudomonas aeruginosa. Conditions: CLSI broth dilution, MHB, 37°C, 20 h, OD630, at least three repeats; clinical isolate.
Text: as §1

Data set [9] concerns mouse fibroblast cells L929. The data set is described as follows: Cytotoxicity, CCK-8. Conditions: at 40 μg ml^–1, 24 h, CCK-8, OD 450 nm, three independent experiments. Type of data set: cell-based. As for the experimental part: (§2) The cytotoxicity of the peptide was determined against mouse fibroblast cells L929 and human embryonic kidney cell 293T (HEK293T). Briefly, the cells were seeded at a density of 8,000 cells per well in a 96-well plate and cultured for 24 h in Dulbecco’s Modified Eagle Medium (DMEM, Gibco) supplemented with 10% fetal bovine serum (FBS, Gibco), 2 mM L-glutamine, 100 U ml^–1 penicillin, […] streptomycin (1% P/S, Invitrogen^TM), and at 37°C in a 5% of CO2 atmosphere. Then, different concentrations of the peptide (0, 10, 20, 30, and 40 μg ml^–1) were added into each well and co-incubated with the cells for 24 h. After 2 h incubation with 10 μM 2-(2-methoxy-4-nitrophenyl)-3-(4-nitrophenyl)-5-(2,4-disulfophenyl)-2H-tetrazolium (CCK-8, Yeasen, China), the cytotoxicity of the peptide was determined by measuring the optical density at 450 nm ([Wu et al., 2014]; [Li et al., 2020]).

Data set [10] has as its system human embryonic kidney cell 293T (HEK293T). The data set is described as follows: Cytotoxicity, CCK-8. Conditions: up to 40 μg ml^–1, 24 h, CCK-8, OD 450 nm, three independent experiments. Type of data set: cell-based. As for the experimental part: as §2

On to `CC[C@H](C)[C@H](NC(=O)[C@H](CCCCN)NC(=O)[C@H](CCCCN)NC(=O)[C@@H](NC(=O)[C@@H](N)Cc1ccccc1)[C@@H](C)CC)C(=O)N[C@@H](C)C(=O)N[C@@H](CCCCN)C(=O)N[C@@H](CC(C)C)C(=O)N[C@@H](CC(C)C)C(=O)N[C@@H](CCCCN)C(=O)N[C@@H](CCCCN)C(=O)N[C@H](C(=O)N[C@@H](Cc1ccccc1)C(N)=O)[C@@H](C)CC` [BmKn2-7K] (H-FIKKIAKLLKKIF-NH2), for which the minimal inhibitory concentration (MIC) was determined as 2.5 µg/mL (≈ 1.57 µM) in [1] (CLSI broth dilution, MHB, 37°C, 20 h, OD630, at least three repeats, standard strain); 5 µg/mL (≈ 3.15 µM) in data set [1] (MHB with 4 μM FeCl3); 5 µg/mL (≈ 3.15 µM) in data set [1] (MHB with 6 μM NH4HCO3); 2.5 µg/mL (≈ 1.57 µM) in data set [1] (MHB with 1 mM MgCl2); 2.5 µg/mL (≈ 1.57 µM) in [1] (MHB with 2 mM CaCl2); 5 µg/mL (≈ 3.15 µM) in [1] (MHB with 4.5 mM KCl). Moreover, the minimal inhibitory concentration (MIC) in [1] (MHB with 150 mM NaCl) was determined as 2.5 µg/mL (≈ 1.57 µM); in [1] (salt sensitivity test, MHB, control without addition of salt ions), 2.5 µg/mL; in data set [2] it was 5 µg/mL (≈ 3.15 µM); in data set [3], 5 µg/mL (≈ 3.15 µM); in data set [4] it was 2.5 µg/mL (≈ 1.57 µM); in [5], 2.5 µg/mL (≈ 1.57 µM). In addition, the MIC in [6] is 2.5 µg/mL (≈ 1.57 µM); in data set [7] it was 5 µg/mL (≈ 3.15 µM); in data set [8], 5 µg/mL (≈ 3.15 µM). In addition, the “cytotoxicity (cell viability)” value in data set [9] is given as “minor cytotoxicity”; in [10] it was “non-toxic”.
